From patent US11149040B2, “Fused triazole agonists of the APJ receptor” (AMGEN INC., priority 2017, dated 2021)

Experiments:
[1] = test system: heart failure rats; assay: Cardiac contractility in vivo in heart failure rat model; conditions: alone, acute settings
Method: Evidence for Improvement in Cardiac Contractility In Vivo in Heart Failure Rat Model Based on ex vivo findings in isolated heart assay, APJ agonists are dosed in vivo to investigate the translation of cardiac contractility in in vivo settings. Male Lewis rats (Charles River, USA) at 2-3 months of age are used for the study. Heart failure is induced by permanent ligation of the left descending coronary artery which results in injury to the heart with an ejection fraction of <35%. APJ agonists are administered dose dependently acutely for a period of 30 min. Administration of APJ agonists lead to an increase in cardiac contractility as measured by dP/dtmax (derivative of left ventricular pressure).

[2] = target: human APJ receptor (Homo sapiens (Human), UniProt P35414); assay: [35S]GTPγS binding assay on membranes from CHO cells stably expressing human APJ receptor; format: biochemical; conditions: read-out: Activity hAPJ SPA EC50 IP
Chain of human APJ receptor (P35414 whole entry): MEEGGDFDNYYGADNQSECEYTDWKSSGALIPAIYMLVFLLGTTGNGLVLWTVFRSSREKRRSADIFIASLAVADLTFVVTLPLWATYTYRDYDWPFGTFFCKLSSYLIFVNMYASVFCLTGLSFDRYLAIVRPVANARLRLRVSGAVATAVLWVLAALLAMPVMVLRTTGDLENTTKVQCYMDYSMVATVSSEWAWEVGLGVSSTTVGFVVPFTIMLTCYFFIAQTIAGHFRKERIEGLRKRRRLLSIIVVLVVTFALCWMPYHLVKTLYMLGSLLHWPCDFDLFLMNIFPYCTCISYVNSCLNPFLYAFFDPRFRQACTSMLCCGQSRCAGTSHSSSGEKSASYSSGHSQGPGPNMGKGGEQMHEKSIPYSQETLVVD
Summary of the method: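 Membranes from CHO cells stably expressing FLAG-tagged human APJ; assay buffer GDP, MgCl2 and NaCl levels optimised beforehand. Incubation 90 min at RT, imager read-out. EC50 from non-linear regression on means of several independent experiments.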

Row | Compound | improvement in contractility or ejection fraction [1] | EC50 [2]
1 | C[C@H](CS)C(=O)N1CCC[C@H]1C(=O)O [Captopril, captopril] | does not show a marked improvement in contractility or ejection fraction acutely | –
2 | COC[C@@H]1COc2ccc(OC)nc2-c2nnc(NS(=O)(=O)[C@@H](C)[C@@H](OC(C)C)c3ncc(C)cn3)n21 (mixture of isomers) [Example 11.0, (1S,2S)-N-((5R)-10-methoxy-5-(methoxymethyl)-5,6-dihydropyrido[2,3-f][1,2,4]triazolo[4,3-d][1,4]oxazepin-3-yl)-1-(5-methyl-2-pyrimidinyl)-1-(2-propanyloxy)-2-propanesulfonamide and (1S,2S)-N-((5S)-10-methoxy-5-(methoxymethyl)-5,6-dihydropyrido[2,3-f][1,2,4]triazolo[4,3-d][1,4]oxazepin-3-yl)-1-(5-methyl-2-pyrimidinyl)-1-(2-propanyloxy)-2-propanesulfonamide] | – | 0.041 µM
3 | Cc1cnc([C@H](OC(C)C)[C@H](C)S(=O)(=O)Nc2nnc3n2-c2c(F)cccc2/C=C\CC3)nc1 (single isomer, unassigned) [Example 48.0, (P)(1S,2S)-N-((Z)-11-Fluoro-4,5-dihydrobenzo[g][1,2,4]triazolo[4,3-a]azocin-1-yl)-1-isopropoxy-1-(5-methylpyrimidin-2-yl)propane-2-sulfonamide or (M)(1S,2S)-N-((Z)-11-fluoro-4,5-dihydrobenzo[g][1,2,4]triazolo[4,3-a]azocin-1-yl)-1-isopropoxy-1-(5-methylpyrimidin-2-yl)propane-2-sulfonamide] | – | > 12.5 µM
4 | Cc1cnc([C@@H](OC(C)C)[C@H](C)S(=O)(=O)Nc2nnc3n2[C@H](CO)COc2ncccc2-3)nc1 (mixture of isomers) [Example 57.0, (1R,2S)-N-((5R)-5-(hydroxymethyl)-5,6-dihydropyrido[3,2-f][1,2,4]triazolo[4,3-d][1,4]oxazepin-3-yl)-1-(5-methyl-2-pyrimidinyl)-1-(2-propanyloxy)-2-propanesulfonamide and (1R,2S)-N-((5S)-5-(hydroxymethyl)-5,6-dihydropyrido[3,2-f][1,2,4]triazolo[4,3-d][1,4]oxazepin-3-yl)-1-(5-methyl-2-pyrimidinyl)-1-(2-propanyloxy)-2-propanesulfonamide] | – | > 12.5 µM
